Experimental data as given in patent publication US9511052B2, “Mineralocorticoid receptor antagonists” (Merck Sharp & Dohme Corp., priority 2012, dated 2016).

Target: T1, full-length human Mineralocorticoid Receptor (MR) (Homo sapiens, UniProt P08235)
T1 construct: host or cells: PathHunter CHO-K1 MR cells
T1 sequence (P08235 1-984): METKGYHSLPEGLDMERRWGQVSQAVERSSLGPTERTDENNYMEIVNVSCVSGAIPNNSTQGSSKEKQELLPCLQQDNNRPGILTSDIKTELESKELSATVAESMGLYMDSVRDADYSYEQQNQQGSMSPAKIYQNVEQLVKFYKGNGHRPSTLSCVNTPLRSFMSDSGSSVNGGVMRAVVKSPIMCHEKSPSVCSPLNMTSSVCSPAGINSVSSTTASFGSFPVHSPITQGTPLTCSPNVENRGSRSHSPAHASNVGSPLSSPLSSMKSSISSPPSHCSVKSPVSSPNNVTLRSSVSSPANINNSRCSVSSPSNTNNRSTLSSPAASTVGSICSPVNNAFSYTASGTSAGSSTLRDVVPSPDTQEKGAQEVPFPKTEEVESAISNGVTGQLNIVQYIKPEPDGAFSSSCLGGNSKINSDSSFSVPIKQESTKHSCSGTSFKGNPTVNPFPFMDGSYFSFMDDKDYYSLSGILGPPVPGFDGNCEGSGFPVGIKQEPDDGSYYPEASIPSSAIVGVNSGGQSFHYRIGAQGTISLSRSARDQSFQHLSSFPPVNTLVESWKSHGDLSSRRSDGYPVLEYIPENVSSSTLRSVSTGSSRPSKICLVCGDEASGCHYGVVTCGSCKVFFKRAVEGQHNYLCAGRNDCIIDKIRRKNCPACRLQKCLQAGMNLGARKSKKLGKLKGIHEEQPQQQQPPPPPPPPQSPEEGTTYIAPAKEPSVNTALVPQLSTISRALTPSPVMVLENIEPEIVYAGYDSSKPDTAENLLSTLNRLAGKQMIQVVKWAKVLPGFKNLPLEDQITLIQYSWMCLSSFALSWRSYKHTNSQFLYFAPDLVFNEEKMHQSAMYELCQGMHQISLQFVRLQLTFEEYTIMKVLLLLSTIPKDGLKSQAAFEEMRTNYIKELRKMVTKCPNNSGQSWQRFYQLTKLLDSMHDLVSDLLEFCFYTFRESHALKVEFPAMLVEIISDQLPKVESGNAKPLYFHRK
Test: human MR NH Pro assay (PathHunter Protein:Protein interaction assay), MR antagonism
Assay type: cell-based
Conditions: IP = inflection point of the dose-response curve; CHO-K1 cells overexpressing human MR, aldosterone about 0.3 nM to about 1 nM, 6 hours at 37° C.
From the text: The activity of the compounds of the present invention regarding mineralocorticoid receptor antagonism can be evaluated using the following assay.
Assessment of MR Potency in HMR NH Pro Assay
The human MR NH Pro assay is a commercially available PathHunter™ Protein:Protein interaction assay (DiscoveRx; http://www.discoverx.com/nhrs/prod-nhrs.php) that measures the ability of compounds to antagonize full-length human Mineralocorticoid Receptor (MR) binding to a coactivator peptide.
Stock solution was prepared at 10 μM in DMSO and stored at −20° C. for assay, dilute in assay media to 1.8 or 6 nM (6× of final concentration=about 0.3 nM to about 1.0 nM)
5. Cell line: PathHunter CHO-K1 MR cells Cat #93-0456C2, Lot No: 09B0913, from operation liquid nitrogen stock.
6. Control Antagonist: Spironolactone: Sigma #S-3378 and Eplerenone Sigma #107724-20-9 (10 mM stock concentration also prepared in DMSO and stored at −20° C.).
1. Cells are grown in F12+FBS+Hygromycin+pen/strep+Genetin
2. Cells are collected with 0.05% trypsin and the cell suspension is spun and resuspended in a volume of F12+1.5% CD-FBS and counted.
3. The cells concentration was adjusted to 4×10^5 cells/mL.
4. Cells were (25 μL/well) added to the wells of a 384 well plate.
5. The plate was then incubated at 37° C. over night in a humidified incubator with 5% CO2.
6. Test compounds were titrated starting at 4.4 mM, 10-point titration in 1:3 dilution.
Protocol for 384 well plate format: 6 hr treatment:
1. 10K exponentially growing cells/well (25 μL) were resuspended in assay media and plated into each well using the Multidrop (Thermo Electron) (use white wall, clear bottom assay plates (Costar #3570) and incubated overnight at 37° C., 5% CO2.
2. 0.25 μL 120× test compound (final DMSO concentration should be <1%) was added to each well n=2, 10 point titrations starting at 36.7 μM final concentration.
4. 5 μL of assay media was added to all wells in column 23 and 24.
5. Cells were then incubated for 6 hrs at 37° C., 5% CO2.
6. 15 μL 3× DiscoveRx detection reagent was then added to each well.
7. Plates were incubated for 1 hour at room temperature in the dark.
8. Plates were read on Envision (PerkinElmer) luminesence plate reader and analyzed using ADA.

Row | IC50 [nM] | SMILES
1 | 3610 | CCC(C(N)=O)(c1ccc(S(F)(F)(F)(F)F)cc1)n1ncc2c(NS(C)(=O)=O)cccc21 (racemic) [Compound 27, 2-{4-[(methylsulfonyl)amino]-1H-indazol-1-yl}-2-[4-(pentafluoro-λ^6-sulfanyl)phenyl]butanamide]
2 | 136 | CCC(O)C(CC)(c1ccc(C#N)cc1)n1ncc2c(NS(C)(=O)=O)cc(F)cc21 (single isomer, unassigned) [Compound 19]
3 | 138 | CCC(O)C(CC)(c1ccc(C#N)cc1)n1ncc2c(NS(C)(=O)=O)cc(F)cc21 (single isomer, unassigned) [Compound 20, N-(1-(3-(4-cyanophenyl)-4-hydroxyhexan-3-yl)-6-fluoro-1H-indazol-4-yl)methanesulfonamide]
4 | 333 | CCC(c1ccc(S(F)(F)(F)(F)F)cc1)(C(C)O)n1ncc2c(NS(C)(=O)=O)cccc21 (single isomer, unassigned) [Compound 21, N-(1-{2-hydroxy-3-[4-(pentafluoro-λ^6-sulfanyl)phenyl]pentan-3-yl}-1H-indazol-4-yl)methanesulfonamide]
5 | 3810 | CCC(c1ccc(S(F)(F)(F)(F)F)cc1)(C(C)O)n1ncc2c(NS(C)(=O)=O)cccc21 (single isomer, unassigned) [Compound 22, N-(1-{2-hydroxy-3-[4-(pentafluoro-λ^6-sulfanyl)phenyl]pentan-3-yl}-1H-indazol-4-yl)methanesulfonamide]
6 | 4740 | CCC(c1ccc(S(F)(F)(F)(F)F)cc1)(C(C)O)n1ncc2c(NS(C)(=O)=O)cccc21 (single isomer, unassigned) [Compound 23, N-(1-{2-hydroxy-3-[4-(pentafluoro-λ^6-sulfanyl)phenyl]pentan-3-yl}-1H-indazol-4-yl)methanesulfonamide]
7 | 152 | CCC(c1ccc(S(F)(F)(F)(F)F)cc1)(C(C)O)n1ncc2c(NS(C)(=O)=O)cccc21 (single isomer, unassigned) [Compound 24, N-(1-{2-hydroxy-3-[4-(pentafluoro-λ^6-sulfanyl)phenyl]pentan-3-yl}-1H-indazol-4-yl)methanesulfonamide]
8 | 48 | CCC(O)C(CC)(c1ccc(S(F)(F)(F)(F)F)cc1)n1ncc2c(NS(C)(=O)=O)cccc21 (single isomer, unassigned) [Compound 25, N-(1-{4-hydroxy-3-[4-(pentafluoro-λ^6-sulfanyl)phenyl]hexan-3-yl}-1H-indazol-4-yl)methanesulfonamide]

Second part, the compound before the results:

Row | SMILES | IC50 [nM]
9 | CCC(c1ccc(Br)cc1)(C(C)O)n1ncc2c(NS(C)(=O)=O)cccc21 (single isomer, unassigned) [Compound 1, N-(1-(3-(4-bromophenyl)-2-hydroxypentan-3-yl)-1H-indazol-4-yl) methanesulfonamide] | 10
10 | CCC(c1ccc(Br)cc1)(C(C)O)n1ncc2c(NS(C)(=O)=O)cccc21 (single isomer, unassigned) [Compound 3, N-(1-(3-(4-bromophenyl)-2-hydroxypentan-3-yl)-1H-indazol-4-yl) methanesulfonamide] | 733
11 | CCC(c1ccc(Br)cc1)(C(C)O)n1ncc2c(NS(C)(=O)=O)cccc21 (single isomer, unassigned) [Compound 4, N-(1-(3-(4-bromophenyl)-2-hydroxypentan-3-yl)-1H-indazol-4-yl) methanesulfonamide] | 728
12 | CCC(O)C(CC)(c1ccc(Br)cc1)n1ncc2c(NS(C)(=O)=O)cccc21 (single isomer, unassigned) [Compound 5, N-(1-(3-(4-bromophenyl)-4-hydroxyhexan-3-yl)-1H-indazol-4-yl)methanesulfonamide] | 8
13 | CCC(O)C(CC)(c1ccc(Br)cc1)n1ncc2c(NS(C)(=O)=O)cccc21 (single isomer, unassigned) [Compound 6, N-(1-(3-(4-bromophenyl)-4-hydroxyhexan-3-yl)-1H-indazol-4-yl)methanesulfonamide] | 3
14 | CCC(O)C(CC)(c1ccc(Br)cc1)n1ncc2c(NS(C)(=O)=O)cccc21 (single isomer, unassigned) [Compound 7, N-(1-(3-(4-bromophenyl)-4-hydroxyhexan-3-yl)-1H-indazol-4-yl)methanesulfonamide] | 1990
15 | CCC(O)C(CC)(c1ccc(Br)cc1)n1ncc2c(NS(C)(=O)=O)cccc21 (single isomer, unassigned) [Compound 8, N-(1-(3-(4-bromophenyl)-4-hydroxyhexan-3-yl)-1H-indazol-4-yl)methanesulfonamide] | 1190
16 | CCC(O)C(CC)(c1ccc(C(F)(F)F)cc1)n1ncc2c(NS(C)(=O)=O)cccc21 (single isomer, unassigned) [Compound 10, N-(1-(4-hydroxy-3-(4-(trifluoromethyl)phenyl)hexan-3-yl)-1H-indazol-4-yl)methanesulfonamide] | 5
17 | CCC(CO)(c1ccc(C(F)(F)F)cc1)n1ncc2c(NS(C)(=O)=O)cccc21 (single isomer, unassigned) [Compound 11, N-(1-(1-hydroxy-2-(4-(trifluoromethyl)phenyl)butan-2-yl)-1H-indazol-4-yl)methanesulfonamide] | 60
18 | CCC(C(N)=O)(c1ccc(C(F)(F)F)cc1)n1ncc2c(NS(C)(=O)=O)cccc21 (single isomer, unassigned) [Compound 12, 2-(4-(methylsulfonamido)-1H-indazol-1-yl)-2-(4-(trifluoromethyl)phenyl) butanamide] | 139
19 | CCC(c1ccc(C#N)cc1)(C(C)O)n1ncc2c(NS(C)(=O)=O)cccc21 (single isomer, unassigned) [Compound 13, N-(1-(-3-(4-cyanophenyl)-2-hydroxypentan-3-yl)-1H-indazol-4-yl)methanesulfonamide] | 225
20 | CCC(O)C(CC)(c1ccc(C#N)cc1)n1ncc2c(NS(C)(=O)=O)cccc21 (single isomer, unassigned) [Compound 15, N-(1-(3-(4-cyanophenyl)-4-hydroxyhexan-3-yl)-1H-indazol-4-yl)methanesulfonamide] | 56
21 | CCC(O)C(CC)(c1ccc(C#N)cc1)n1ncc2c(NS(C)(=O)=O)cccc21 (single isomer, unassigned) [Compound 16, N-(1-(3-(4-cyanophenyl)-4-hydroxyhexan-3-yl)-1H-indazol-4-yl)methanesulfonamide] | 48
22 | CCC(O)C(CC)(c1ccc(C(F)(F)F)cc1)n1ncc2c(NS(C)(=O)=O)cc(F)cc21 (single isomer, unassigned) [Compound 17, N-(6-fluoro-1-(4-hydroxy-3-(4-(trifluoromethyl)phenyl)hexan-3-yl)-1H-indazol-4-yl)methanesulfonamide] | 21
23 | CCC(O)C(CC)(c1ccc(C(F)(F)F)cc1)n1ncc2c(NS(C)(=O)=O)cc(F)cc21 (single isomer, unassigned) [Compound 18, N-(6-fluoro-1-(4-hydroxy-3-(4-(trifluoromethyl)phenyl)hexan-3-yl)-1H-indazol-4-yl)methanesulfonamide] | 9
